Data reported in patent publication US20250222120A1, “SYNTHESIS OF NOVEL SMALL MOLECULE CARM1 DEGRADERS, COMPOUNDS FORMED THEREBY, AND PHARMACEUTICAL COMPOSITIONS CONTAINING THEM” (Wisconsin Alumni Research Foundation, priority 2024, published 2025).
Peptide text beside a SMILES is read from it. * marks the point of attachment. Cbz = O=C(OCc1ccccc1)*

Target: T1, CARM1 (Homo sapiens, UniProt Q86X55)
T1 sequence (Q86X55 1-608): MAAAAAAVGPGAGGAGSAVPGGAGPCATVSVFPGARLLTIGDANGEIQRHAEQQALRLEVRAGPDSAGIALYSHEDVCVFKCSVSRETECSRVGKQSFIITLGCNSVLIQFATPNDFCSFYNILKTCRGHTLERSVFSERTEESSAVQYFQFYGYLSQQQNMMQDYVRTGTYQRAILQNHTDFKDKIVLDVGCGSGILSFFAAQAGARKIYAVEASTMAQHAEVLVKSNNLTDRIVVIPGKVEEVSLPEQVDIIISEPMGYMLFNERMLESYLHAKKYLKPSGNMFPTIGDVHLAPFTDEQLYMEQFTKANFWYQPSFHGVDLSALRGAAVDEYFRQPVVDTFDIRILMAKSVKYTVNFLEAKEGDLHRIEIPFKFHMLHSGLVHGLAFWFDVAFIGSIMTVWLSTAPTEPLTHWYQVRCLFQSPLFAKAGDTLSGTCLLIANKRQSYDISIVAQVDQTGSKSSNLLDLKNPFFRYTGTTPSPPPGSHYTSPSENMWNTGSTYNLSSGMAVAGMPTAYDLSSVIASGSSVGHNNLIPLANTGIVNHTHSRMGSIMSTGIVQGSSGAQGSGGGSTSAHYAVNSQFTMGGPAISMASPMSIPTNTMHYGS
Test: CARM1 degradation by western blot in MCF7 cells
Format: cell-based
Design: Cell lysates were collected and the CARM1 levels were detected by western blots; endogenous in cells; host or cells: MCF7
Conditions: MCF7 cells, 0.5 μM 3b, 24 h; 7.5 μM MG132, 20 μM VH-032, 2 μM MLN4924, 10 μM TP-064

Effect of competitor/inhibitor on 3b-induced CARM1 degradation | SMILES
abrogated 3b-induced CARM1 degradation | NS(=O)(=O)OC[C@@H]1C[C@@H](n2ccc3c(N[C@H]4CCc5ccccc54)ncnc32)C[C@@H]1O [MLN492437, reference compound]
abrogated 3b-induced CARM1 degradation | CC(=O)N[C@H](C(=O)N1C[C@H](O)C[C@H]1C(=O)NCc1ccc(-c2scnc2C)cc1)C(C)(C)C [VH-032, reference compound]

SMILES | Effect of competitor/inhibitor on 3b-induced CARM1 degradation
CC(C)C[C@@H](C=O)NC(=O)[C@H](CC(C)C)NC(=O)[C@H](CC(C)C)NC(=O)OCc1ccccc1 [MG132, reference compound] (Cbz-Leu-Leu-Leu-aldehyde) | abrogated 3b-induced CARM1 degradation

Target: T1, CARM1
Test: CARM1 degradation by western blot in MCF7 cells
Format: cell-based
Design: Cell lysates were collected and the CARM1 levels were detected by western blots; endogenous in cells; host or cells: MCF7
Conditions: 0.5 μM, 24 h
Description: Based on the structure of TPVC3, CARM1 degraders with stable and flexible alkyl linkages 2a-e were designed and synthesized. Degrader 2b bears the same linker length as TPVC3, while 2a has one less carbon. However, we also changed the hydrolytic labile C═N double bond, which is part of the acylhydrazone motif, in TPVC3 to a C—C bond in compound 2b. This change may influence the required optimal linker length. […] Western blot assays were performed to evaluate the CARM1 degradation activity of the compounds after treating MCF7 cells with these degraders at two concentrations (0.5 and 1.0 μM) for 24 h. […] It has one less carbon atom than 2a in terms of length. […] It has the same linker length as 2d.
The treatment dose and time were determined based on time-course and dose titration experiments (FIG. 4B-4C).
Western Blot Assay. Cells were harvested and washed with Dulbecco's phosphate-buffered saline (PBS), then lysed with 1×RIPA lysis buffer (50 mM Tris pH 7.5, 150 mM NaCl, 1% NP-40, 0.5% sodium deoxycholate, and 0.1% sodium dodecyl sulfate) supplemented with 1 mM phenylmethylsulfonyl fluoride, 10 μg/mL aprotinin, 1 μM leupeptin, and 10 μg/mL pepstatin on ice for 20 min. The supernatant was collected after spinning down at 15000 RPM at 4 degrees Celsius for 10 min. The concentration of whole lysates was quantified using a Bradford assay. 50-75 μg of cell lysates was boiled in 4× Laemmli Loading Dye and boiled at 100 degrees Celsius for 10 min. 25 μg were run in 8% SDS-PAGE gels and transferred to nitrocellulose membranes. Blots were blocked in 5% skim milk in PBST [PBS and 0.1% Tween 20] for 45 min, then incubated with primary antibodies at 4 degrees Celsius overnight. Blots were washed in PBST for 30 min, then incubated with horseradish peroxidase-linked secondary antibodies (Jackson ImmunoResearch) for 1 hr. Afterwards, blots were washed in PBST for 15-30 min, then treated with chemiluminescent ECL reagent and imaged with the ChemiDoc Imaging System (Bio-Rad) or Azure 600 (Azure Biosystems). Expression levels of the indicated proteins were probed by the following antibodies: anti-CARM1, anti-me-BAF155, anti-me-PABP1, anti-PABP1,^7 anti-BAF155 (D7F8S, Cell Signaling Technology), anti-PRMT1 (Bethyl), anti-PRMT6 (D-5, Santa Cruz Biotechnology), anti-β-Actin (ABclonal Technology, Sigma-Aldrich), anti-Hsp90 (H-114, Santa Cruz Biotechnology).

SMILES | CARM1 degradation activity
CNCCN1CCC(c2cc(CN(C)C(=O)c3cccc(Oc4ccc(C(=O)N5CCC(CN6CCC(CN7CCN(CC(=O)N[C@H](C(=O)N8C[C@H](O)C[C@H]8C(=O)N[C@@H](C)c8ccc(-c9scnc9C)cc8)C(C)(C)C)CC7)CC6)CC5)cc4)c3)ccn2)CC1 [Compound 3c, (2S,4R)-1-((S)-3,3-dimethyl-2-(2-(4-((1-((1-(4-(3-(methyl((2-(1-(2-(methylamino)ethyl)piperidin-4-yl)pyridin-4-yl)methyl)carbamoyl)phenoxy)benzoyl)piperidin-4-yl)methyl)piperidin-4-yl)methyl)piperazin-1-yl)acetamido)butanoyl)-4-hydroxy-N—((S)-1-(4-(4-methylthiazol-5-yl)phenyl)ethyl)pyrrolidine-2-carboxamide] | significantly lower CARM1 degradation activities
CNCCN1CCC(c2cc(CN(C)C(=O)c3cccc(Oc4ccc(CC(=O)N5CCC(CN6CCC(CN7CCN(CC(=O)N[C@H](C(=O)N8C[C@H](O)C[C@H]8C(=O)N[C@@H](C)c8ccc(-c9scnc9C)cc8)C(C)(C)C)CC7)CC6)CC5)cc4)c3)ccn2)CC1 [Compound 3d, (2S,4R)-1-((S)-3,3-dimethyl-2-(2-(4-((1-((1-(2-(4-(3-(methyl((2-(1-(2-(methylamino)ethyl)piperidin-4-yl)pyridin-4-yl)methyl)carbamoyl)phenoxy)phenyl)acetyl)piperidin-4-yl)methyl)piperidin-4-yl)methyl)piperazin-1-yl)acetamido)butanoyl)-4-hydroxy-N—((S)-1-(4-(4-methylthiazol-5-yl)phenyl)ethyl)pyrrolidine-2-carboxamide] | significantly lower CARM1 degradation activities

Same assay, conditions: 0.5 and 1.0 μM, 24 h

SMILES | CARM1 degradation activity, alkyl-linker degraders
CNCCN1CCC(c2cc(CN(C)C(=O)c3cccc(Oc4ccc(OCC(=O)NCc5ccc(OCCCC(=O)N[C@H](C(=O)N6C[C@H](O)C[C@H]6C(=O)N[C@@H](C)c6ccc(-c7scnc7C)cc6)C(C)(C)C)cc5)cc4)c3)ccn2)CC1 [Compound 2a, (2S,4R)-1-((S)-3,3-dimethyl-2-(4-(4-((2-(4-(3-(methyl((2-(1-(2-(methylamino)ethyl)piperidin-4-yl)pyridin-4-yl)methyl)carbamoyl)phenoxy)phenoxy)acetamido)methyl)phenoxy)butanamido)butanoyl)-4-hydroxy-N—((S)-1-(4-(4-methylthiazol-5-yl)phenyl)ethyl)pyrrolidine-2-carboxamide] | 2d and 2e showed stronger CARM1 degradation activities than 2a, 2b, and 2c
CNCCN1CCC(c2cc(CN(C)C(=O)c3cccc(Oc4ccc(OCC(=O)NCCc5ccc(OCCCC(=O)N[C@H](C(=O)N6C[C@H](O)C[C@H]6C(=O)N[C@@H](C)c6ccc(-c7scnc7C)cc6)C(C)(C)C)cc5)cc4)c3)ccn2)CC1 [Compound 2b, (2S,4R)-1-((S)-3,3-dimethyl-2-(4-(4-(2-(2-(4-(3-(methyl((2-(1-(2-(methylamino)ethyl)piperidin-4-yl)pyridin-4-yl)methyl)carbamoyl)phenoxy)phenoxy)acetamido)ethyl)phenoxy)butanamido)butanoyl)-4-hydroxy-N—((S)-1-(4-(4-methylthiazol-5-yl)phenyl)ethyl)pyrrolidine-2-carboxamide] | 2d and 2e showed stronger CARM1 degradation activities than 2a, 2b, and 2c
CNCCN1CCC(c2cc(CN(C)C(=O)c3cccc(Oc4ccc(OCC(=O)NCCc5ccc(OCCCCC(=O)N[C@H](C(=O)N6C[C@H](O)C[C@H]6C(=O)N[C@@H](C)c6ccc(-c7scnc7C)cc6)C(C)(C)C)cc5)cc4)c3)ccn2)CC1 [Compound 2c, (2S,4R)-1-((S)-3,3-dimethyl-2-(5-(4-(2-(2-(4-(3-(methyl((2-(1-(2-(methylamino)ethyl)piperidin-4-yl)pyridin-4-yl)methyl)carbamoyl)phenoxy)phenoxy)acetamido)ethyl)phenoxy)pentanamido)butanoyl)-4-hydroxy-N—((S)-1-(4-(4-methylthiazol-5-yl)phenyl)ethyl)pyrrolidine-2-carboxamide] | 2d and 2e showed stronger CARM1 degradation activities than 2a, 2b, and 2c
CNCCN1CCC(c2cc(CN(C)C(=O)c3cccc(Oc4ccc(OCC(=O)NCCc5ccc(OCCCCCC(=O)N[C@H](C(=O)N6C[C@H](O)C[C@H]6C(=O)N[C@@H](C)c6ccc(-c7scnc7C)cc6)C(C)(C)C)cc5)cc4)c3)ccn2)CC1 [Compound 2d, (2S,4R)-1-((S)-3,3-dimethyl-2-(6-(4-(2-(2-(4-(3-(methyl((2-(1-(2-(methylamino)ethyl)piperidin-4-yl)pyridin-4-yl)methyl)carbamoyl)phenoxy)phenoxy)acetamido)ethyl)phenoxy)hexanamido)butanoyl)-4-hydroxy-N—((S)-1-(4-(4-methylthiazol-5-yl)phenyl)ethyl)pyrrolidine-2-carboxamide] | stronger CARM1 degradation activities
CNCCN1CCC(c2cc(CN(C)C(=O)c3cccc(Oc4ccc(OCC(=O)NCCc5ccc(OCCCCCCC(=O)N[C@H](C(=O)N6C[C@H](O)C[C@H]6C(=O)N[C@@H](C)c6ccc(-c7scnc7C)cc6)C(C)(C)C)cc5)cc4)c3)ccn2)CC1 [Compound 2e, (2S,4R)-1-((S)-3,3-dimethyl-2-(7-(4-(2-(2-(4-(3-(methyl((2-(1-(2-(methylamino)ethyl)piperidin-4-yl)pyridin-4-yl)methyl)carbamoyl)phenoxy)phenoxy)acetamido)ethyl)phenoxy)heptanamido)butanoyl)-4-hydroxy-N—((S)-1-(4-(4-methylthiazol-5-yl)phenyl)ethyl)pyrrolidine-2-carboxamide] | stronger CARM1 degradation activities
